Data reported in patent US20240384311A1, “POLYHYDROXYALKANOATES AND METHODS OF MAKING THEREOF” (The Board of Trustees of the Leland Stanford Junior …, priority 2021, published 2024).
Like-named read-outs stand apart in the source and are kept apart here.

Columns and labels:
Assay type in all cases: cell-based
[1] = tested on: Cupriavidus necator H16 ΔphaC1 pct540-phaC1437; settings: for final biomass: H16 ΔphaC1 pct540-phaC1437 cultivated with the hydroxyalkanoate at its listed concentration, 30 g/L fructose, 2 g/L ammonium chloride; for Concentration (maximum non-toxic concentration of hydroxyalkanoate): H16 ΔphaC1 pct540-phaC1437, shake-flask, 30° C., determined from 20 mM down in steps of 5 mM until acceptable growth
Protocol: (§1) Liquid cultures under heterotrophic conditions were conducted in 500 mL vented, baffled shake-flasks (WHEATON® Erlenmeyer Flasks with DuoCap®. DWK Life Sciences), incubated with shaking at 180 rpm on an innova 2300 platform shaker (New Brunswick Scientific) at 30° C. For feeding experiments, precultures of the engineered C. necator strains were inoculated in liquid RB+kan (50 mL) from solid RB+kan and grown over-night. In the morning the medium was exchanged for MSM+kan, diluting the culture 1:2 (in 100 mL). In the afternoon the seed-culture was washed with MSM and again diluted 1:2 (in 200 mL) with MSM+kan+polymer-precursor and induced with arabinose (1 g/L, unless indicated otherwise) in the evening. OD was monitored accompanied by collection of supernatant samples.
(§2) In a PHA-negative knock-out mutant (ΔphaC1) of the type-strain ‘H16’, pct540 & phaC1437 and hadA & phaC1437 were expressed, respectively.
(§3) Toxicity limits of the respective hydroxy carbonic acids were determined outgoing from 20 mM down in steps of 5 mM until acceptable growth was obtained in shake-flask experiments at 30° C.
(§4) Cultivations conducted on minimal salt medium with 30 g/L fructose as carbon-source and 2 g/L ammonium chloride as nitrogen-source (limiting). Cultures were inoculated at an OD600 of ≈0.5-1.

[2] = tested on: Cupriavidus necator H16 wild-type; test: Shake-flask cultivation with externally supplied hydroxy carbonic acids (toxicity limit, growth), wild-type strain; settings: for final biomass: H16 wild-type cultivated with the hydroxyalkanoate at its listed concentration, 2 g/L ammonium chloride
Protocol: as §1, §2, §3, §4

[3] = tested on: Cupriavidus necator H16 ΔphaC1 hadA-phaC1437; settings: shake-flask, 30° C., determined from 20 mM down in steps of 5 mM until acceptable growth
Protocol: as §1, §2, §3, §4

[4] = H16 wild-type, shake-flask, 30° C., determined from 20 mM down in steps of 5 mM until acceptable growth, MSM, 30 g/L fructose

## CC(O)C(=O)O (centres unmarked) [lactic acid]
[1]
  final biomass: 1.9 g/L
[2]
  Concentration (maximum non-toxic concentration of hydroxyalkanoate): 20 mM
[2]; 30 g/L fructose
  final biomass: 18.2 g/L

## O=C(O)CCCO [4-hydroxybutanoic acid]
[1]
  Concentration (maximum non-toxic concentration of hydroxyalkanoate): 20000 µM
  final biomass: 1.9 g/L
[3]
  Concentration (maximum non-toxic concentration of hydroxyalkanoate): 20000 µM
[2]; 30 g/L fructose
  final biomass: 4.1 g/L
[2]; [4]
  Concentration (maximum non-toxic concentration of hydroxyalkanoate): 20 mM

## O=C(O)C(O)Cc1ccccc1 (centres unmarked) [phenyllactic acid]
[3]
  Concentration (maximum non-toxic concentration of hydroxyalkanoate): 10000 µM

## O=C(O)CCCCCO [6-hydroxyhexanoic acid]
[1]
  Concentration (maximum non-toxic concentration of hydroxyalkanoate): (<10 mM)
  final biomass: 1.5 g/L
[3]
  Concentration (maximum non-toxic concentration of hydroxyalkanoate): (<10 mM)
[2]; 30 g/L fructose
  final biomass: 3.5 g/L
[2]; [4]
  Concentration (maximum non-toxic concentration of hydroxyalkanoate): (<10 mM)

## O=C(O)CCc1ccc(O)cc1 [phloretic acid]
[3]
  Concentration (maximum non-toxic concentration of hydroxyalkanoate): 5000 µM

## O=C(O)C(O)c1ccccc1 (centres unmarked) [mandelic acid]
[3]
  Concentration (maximum non-toxic concentration of hydroxyalkanoate): 5000 µM

## O=C(O)CO [glycolic acid]
[1]
  final biomass: 1.4 g/L
[2]; 30 g/L fructose
  final biomass: 6.8 g/L

## O=C(O)C(O)CCc1ccccc1 (centres unmarked) [2-hydroxy-4-phenylbutanoic acid]
[3]
  Concentration (maximum non-toxic concentration of hydroxyalkanoate): 15000 µM

## O=C(O)CCO [3-hydroxypropanoic acid]
[1]
  Concentration (maximum non-toxic concentration of hydroxyalkanoate): 20000 µM
  final biomass: 1.6 g/L
[3]
  Concentration (maximum non-toxic concentration of hydroxyalkanoate): 20000 µM
[2]; 30 g/L fructose
  final biomass: 5.7 g/L
[2]; [4]
  Concentration (maximum non-toxic concentration of hydroxyalkanoate): 20 mM

## O=C(O)/C=C/c1ccc(O)c(O)c1 [caffeic acid]
[3]
  Concentration (maximum non-toxic concentration of hydroxyalkanoate): 5000 µM

## O=C(O)/C=C/c1ccc(O)cc1 [para-coumaric acid]
[3]
  Concentration (maximum non-toxic concentration of hydroxyalkanoate): 5000 µM
